Measured values taken from the supplement of paper PMC10307832.

Legend:
Test in all cases: relative viability (nuclei count vs DMSO), 5 days (fraction); higher = more cells survive
Zosuquidar + Linsitinib = compound: O[C@@H](COc1cccc2ncccc12)CN1CCN([C@@H]2c3ccccc3[C@@H]3[C@H](c4ccccc42)C3(F)F)CC1 [Zosuquidar] + C[C@]1(O)C[C@@H](c2nc(-c3ccc4ccc(-c5ccccc5)nc4c3)c3c(N)nccn32)C1 [Linsitinib] (partner 1 µM)
How it was run: (§1)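 Lung cancer cell lines in 1536-well plates got either a single drug or a fixed anchor-drug dose together with five library-drug doses (not always all listed) in √10 steps, by pin tool, on the day after seeding. Nuclei were counted after 5 days, and relative viability is the treated-to-vehicle ratio of nuclei counts. Values are medians of duplicate plates.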

Zosuquidar + Decitabine = compound: O[C@@H](COc1cccc2ncccc12)CN1CCN([C@@H]2c3ccccc3[C@@H]3[C@H](c4ccccc42)C3(F)F)CC1 [Zosuquidar] + Nc1ncn([C@H]2C[C@H](O)[C@@H](CO)O2)c(=O)n1 [Decitabine] (partner 2 µM)
How it was run: as §1

Zosuquidar + Pemetrexed = compound: O[C@@H](COc1cccc2ncccc12)CN1CCN([C@@H]2c3ccccc3[C@@H]3[C@H](c4ccccc42)C3(F)F)CC1 [Zosuquidar] + Nc1nc2[nH]cc(CCc3ccc(C(=O)N[C@@H](CCC(=O)O)C(=O)O)cc3)c2c(=O)[nH]1 [Pemetrexed] (partner 0.2 µM)
How it was run: as §1

[1] = compound: COc1cc2nccc(Oc3ccc(NC(=O)C4(C(=O)Nc5ccc(F)cc5)CC4)cc3)c2cc1OC [Cabozantinib] + CC1(C)CCC(c2ccc(Cl)cc2)=C(CN2CCN(c3ccc(C(=O)NS(=O)(=O)c4ccc(N[C@H](CCN5CCOCC5)CSc5ccccc5)c(S(=O)(=O)C(F)(F)F)c4)cc3)CC2)C1 [Navitoclax] (partner 0.5 µM)
How it was run: as §1

Work on UMC-11 yielded a relative viability (Zosuquidar + Linsitinib; first compound 0.01 µM) of 0.976, a relative viability (Zosuquidar + Linsitinib; first compound 0.03162 µM) of 0.98 and a relative viability (Zosuquidar + Linsitinib; first compound 0.1 µM) of 1.05. It also gave a relative viability (Zosuquidar + Linsitinib; first compound 0.3162 µM) of 1.07, a relative viability (Zosuquidar + Linsitinib; first compound 1 µM) of 1.07 and a relative viability (Zosuquidar + Decitabine; first compound 0.01 µM) of 0.567. For the same cell line, the relative viability (Zosuquidar + Decitabine; first compound 0.03162 µM) was 0.575, the relative viability (Zosuquidar + Decitabine; first compound 0.1 µM) was 0.538 and the relative viability (Zosuquidar + Decitabine; first compound 0.3162 µM) was 0.666. It also gave a relative viability (Zosuquidar + Decitabine; first compound 1 µM) of 0.59, a relative viability (Zosuquidar + Pemetrexed; first compound 0.01 µM) of 0.739 and a relative viability (Zosuquidar + Pemetrexed; first compound 0.03162 µM) of 0.739. For the same cell line, the relative viability (Zosuquidar + Pemetrexed; first compound 0.1 µM) was 0.894, the relative viability (Zosuquidar + Pemetrexed; first compound 0.3162 µM) was 0.858 and the relative viability (Zosuquidar + Pemetrexed; first compound 1 µM) was 0.86. It also gave a relative viability ([1]; first compound 0.02 µM) of 0.298, a relative viability ([1]; first compound 0.06325 µM) of 0.332 and a relative viability ([1]; first compound 0.2 µM) of 0.34. It also gave a relative viability ([1]; first compound 0.6325 µM) of 0.329 and a relative viability ([1]; first compound 2 µM) of 0.297.
